Where only a bound is given, the exact number is not on record here.

The term IC50 denotes the point on the concentration scale where inhibition reaches its midpoint. A word on the inhibition: it is the relative decrease from the control value, in per cent.

This experiment deals with 11β-HSD1 (Homo sapiens, UniProt P28845). Briefly: biochemical. The note with it: for IC50: IC50 Range, Biological Test Example 1, microsomes from CHO cells overexpressing human 11β-HSD1; for inhibition at 0.1 µM: read-out: Average % inhibition at 100 nM, Biological Test Example 1, 100 nM.
11β-HSD1, sequence (P28845 whole entry): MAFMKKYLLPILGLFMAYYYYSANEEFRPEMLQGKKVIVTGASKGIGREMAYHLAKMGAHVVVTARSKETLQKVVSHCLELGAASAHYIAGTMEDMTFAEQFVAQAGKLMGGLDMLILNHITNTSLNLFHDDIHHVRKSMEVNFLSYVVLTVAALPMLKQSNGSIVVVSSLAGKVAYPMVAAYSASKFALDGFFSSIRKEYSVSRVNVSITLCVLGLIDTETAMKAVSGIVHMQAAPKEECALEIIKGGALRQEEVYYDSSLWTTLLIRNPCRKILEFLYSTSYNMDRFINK

Take `C[C@@H](c1ccc(F)cc1)N1CC[C@](CCO)(c2ccc(F)cc2)OC1=O` [EXAMPLE 406, (S)-6-(4-fluorophenyl)-3-((S)-1-(4-fluorophenyl)ethyl)-6-(2-hydroxyethyl)-1,3-oxazinan-2-one]: the IC50 is below 0.1 µM and the inhibition at 0.1 µM was determined as 86.4%. Turning to `C[C@@H](c1ccc(F)cc1)N1CC[C@](CC(C)(C)O)(c2ccc(F)cc2)OC1=O` [EXAMPLE 407, (S)-6-(4-fluorophenyl)-3-((S)-1-(4-fluorophenyl)ethyl)-6-(2-hydroxy-2-methylpropyl)-1,3-oxazinan-2-one], the IC50 is below 0.1 µM and the inhibition at 0.1 µM was determined as 94.7%. For `CC(O)C[C@]1(c2ccc(F)cc2)CCN([C@@H](C)c2ccc(F)cc2)C(=O)O1` (stereo partly drawn) [EXAMPLE 408, (6S)-6-(4-fluorophenyl)-3-((S)-1-(4-fluorophenyl)ethyl)-6-(2-hydroxypropyl)-1,3-oxazinan-2-one], in that order: below 0.1 µM and 90.2%. For `C[C@@H](c1ccc(F)cc1)N1CC[C@](CCCNS(C)(=O)=O)(c2ccc(F)cc2)OC1=O` [EXAMPLE 409, N-(3-((R)-6-(4-fluorophenyl)-3-((S)-1-(4-fluorophenyl)ethyl)-2-oxo-1,3-oxazinan-6-yl)propyl)methanesulfonamide] the same measures were below 0.1 µM and 91.6%.

On to `C[C@@H](c1ccc(F)cc1)N1CC[C@](CCC(C)(C)O)(c2ccc(F)cc2)OC1=O` [EXAMPLE 410, (R)-6-(4-fluorophenyl)-3-((S)-1-(4-fluorophenyl)ethyl)-6-(3-hydroxy-3-methylbutyl)-1,3-oxazinan-2-one], for which the IC50 was below 0.1 µM and the inhibition at 0.1 µM came to 52%. For `C[C@@H](c1ccc(F)cc1)N1CC[C@](CCO)(c2ccccc2)OC1=O` [EXAMPLE 412, (S)-3-((S)-1-(4-fluorophenyl)ethyl)-6-(2-hydroxyethyl)-6-phenyl-1,3-oxazinan-2-one], in that order: below 0.1 µM and 94.7%. For `C[C@@H](c1ccc(F)cc1)N1CC[C@](CC(C)(C)O)(c2ccccc2)OC1=O` [EXAMPLE 413, (S)-3-((S)-1-(4-fluorophenyl)ethyl)-6-(2-hydroxy-2-methylpropyl)-6-phenyl-1,3-oxazinan-2-one] the same measures were below 0.1 µM and 95.3%. For `C[C@@H](c1ccc(F)cc1)N1CC[C@](CCCO)(c2ccccc2)OC1=O` [EXAMPLE 414, (R)-3-((S)-1-(4-fluorophenyl)ethyl)-6-(3-hydroxypropyl)-6-phenyl-1,3-oxazinan-2-one], in that order: below 0.1 µM and 94.4%. On to `C[C@@H](c1ccc(F)cc1)N1CC[C@](CCC(N)=O)(c2ccccc2)OC1=O` [EXAMPLE 415, 3-((R)-3-((S)-1-(4-fluorophenyl)ethyl)-2-oxo-6-phenyl-1,3-oxazinan-6-yl)propanamide], for which the IC50 was below 0.1 µM and the inhibition at 0.1 µM was 87.6%. For `C[C@@H](c1ccc(F)cc1)N1CC[C@](CCC(C)(C)O)(c2ccccc2)OC1=O` [EXAMPLE 416, (R)-3-((S)-1-(4-fluorophenyl)ethyl)-6-(3-hydroxy-3-methylbutyl)-6-phenyl-1,3-oxazinan-2-one] the same measures were below 0.1 µM and 55.1%. For `Cc1ccc([C@H](C)N2CC[C@](CC(C)(C)O)(c3ccc(F)cc3)OC2=O)cc1` [EXAMPLE 417, (S)-6-(4-fluorophenyl)-6-(2-hydroxy-2-methylpropyl)-3-((S)-1-p-tolylethyl)-1,3-oxazinan-2-one] the same measures were below 0.1 µM and 97.1%. For `Cc1ccc([C@H](C)N2CC[C@](CCCO)(c3ccc(F)cc3)OC2=O)cc1` [EXAMPLE 418, (R)-6-(4-fluorophenyl)-6-(3-hydroxypropyl)-3-((S)-1-p-tolylethyl)-1,3-oxazinan-2-one] the same measures were below 0.1 µM and 99.2%. Take `Cc1ccc([C@H](C)N2CC[C@](CCCNS(C)(=O)=O)(c3ccc(F)cc3)OC2=O)cc1` [EXAMPLE 420, N-(3-((R)-6-(4-fluorophenyl)-2-oxo-3-((S)-1-p-tolylethyl)-1,3-oxazinan-6-yl)propyl)methanesulfonamide]: the IC50 was below 0.1 µM and the inhibition at 0.1 µM stood at 97.3%.

Consider `Cc1ccc([C@H](C)N2CC[C@](CCO)(c3ccc(F)cc3)OC2=O)cc1` [EXAMPLE 421, (S)-6-(4-fluorophenyl)-6-(2-hydroxyethyl)-3-((S)-1-p-tolylethyl)-1,3-oxazinan-2-one], for which the IC50 was below 0.1 µM and the inhibition at 0.1 µM amounted to 96.1%. For `Cc1ccc([C@H](C)N2CC[C@](CC(C)(C)O)(c3ccccc3)OC2=O)cc1` [EXAMPLE 422, (S)-6-(2-hydroxy-2-methylpropyl)-6-phenyl-3-((S)-1-p-tolylethyl)-1,3-oxazinan-2-one] the same measures were below 0.1 µM and 100%. For `Cc1ccc([C@H](C)N2CC[C@](CCCO)(c3ccccc3)OC2=O)cc1` [EXAMPLE 423, (R)-6-(3-hydroxypropyl)-6-phenyl-3-((S)-1-p-tolylethyl)-1,3-oxazinan-2-one], the IC50 was below 0.1 µM and the inhibition at 0.1 µM turned out to be 97.6%. For `Cc1ccc([C@H](C)N2CC[C@](CCC(N)=O)(c3ccccc3)OC2=O)cc1` [EXAMPLE 424, 3-((R)-2-oxo-6-phenyl-3-((S)-1-p-tolylethyl)-1,3-oxazinan-6-yl)propanamide], in that order: below 0.1 µM and 97%. For `COc1ccc([C@H](C)N2CC[C@](CC(C)(C)O)(c3ccc(F)cc3)OC2=O)cc1` [EXAMPLE 425, (S)-6-(4-fluorophenyl)-6-(2-hydroxy-2-methylpropyl)-3-((S)-1-(4-methoxyphenyl)ethyl)-1,3-oxazinan-2-one], the IC50 is below 0.1 µM and the inhibition at 0.1 µM turned out to be 96.2%. For `COc1ccc([C@H](C)N2CC[C@](CCC(C)(C)O)(c3ccc(F)cc3)OC2=O)cc1` [EXAMPLE 426, (R)-6-(4-fluorophenyl)-6-(3-hydroxy-3-methylbutyl)-3-((S)-1-(4-methoxyphenyl)ethyl)-1,3-oxazinan-2-one], in that order: below 0.1 µM and 82.5%. For `COc1ccc([C@H](C)N2CC[C@](CC(C)(C)O)(c3ccccc3)OC2=O)cc1` [EXAMPLE 427, (S)-6-(2-hydroxy-2-methylpropyl)-3-((S)-1-(4-methoxyphenyl)ethyl)-6-phenyl-1,3-oxazinan-2-one] the same measures were below 0.1 µM and 97.8%.

Turning to `COc1ccc([C@H](C)N2CC[C@](CCC(C)(C)O)(c3ccccc3)OC2=O)cc1` [EXAMPLE 428, (R)-6-(3-hydroxy-3-methylbutyl)-3-((S)-1-(4-methoxyphenyl)ethyl)-6-phenyl-1,3-oxazinan-2-one], the IC50 is below 0.1 µM and the inhibition at 0.1 µM amounted to 82%. For `Cc1cc(-c2ccc([C@H](C)N3CC[C@](CC(C)(C)O)(c4ccc(F)cc4)OC3=O)cc2)ccn1` [EXAMPLE 449, (S)-6-(4-fluorophenyl)-6-(2-hydroxy-2-methylpropyl)-3-((S)-1-(4-(2-methylpyridin-4-yl)phenyl)ethyl)-1,3-oxazinan-2-one], the inhibition at 0.1111 µM (read-out: Average % inhibition at 111.1 nM, Biological Test Example 1, 111.1 nM) turned out to be 99.4%.

Values taken from patent US8575156B2, “Cyclic inhibitors of 11β-hydroxysteroid dehydrogenase 1” (Vitae Pharmaceuticals, Inc., priority 2007, dated 2013).
